The values below come from patent US6706493B2, “DNA encoding a cholecystokinin receptor” (The United States of America as represented by the …, priority 1992, dated 2004).

Where no end group is shown, it is not given here.

Test [1] has as its target T1, CCKA receptor (Rattus norvegicus, UniProt P30551).
T1 construct: expressed in transfected cells; host or cells: Xenopus oocytes injected with in vitro transcribed RNA (clone nt 5 to 1506 in pcDNA-1)
T1 sequence (P30551 1-444): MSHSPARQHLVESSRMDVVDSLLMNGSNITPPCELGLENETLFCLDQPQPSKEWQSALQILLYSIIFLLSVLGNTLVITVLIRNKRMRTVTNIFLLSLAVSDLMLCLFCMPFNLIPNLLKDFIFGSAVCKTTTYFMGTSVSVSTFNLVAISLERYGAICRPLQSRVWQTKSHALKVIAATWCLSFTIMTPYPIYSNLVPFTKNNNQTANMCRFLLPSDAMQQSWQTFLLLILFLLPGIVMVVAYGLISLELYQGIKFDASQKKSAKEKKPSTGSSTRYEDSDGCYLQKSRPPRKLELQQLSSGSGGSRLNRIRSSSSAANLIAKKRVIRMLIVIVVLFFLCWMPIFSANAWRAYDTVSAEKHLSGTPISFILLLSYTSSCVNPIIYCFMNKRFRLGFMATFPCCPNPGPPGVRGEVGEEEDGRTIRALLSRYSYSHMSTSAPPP
Description: Ligand-induced chloride current in Xenopus oocytes injected with rat CCKA receptor mRNA. It is filed as cell-based. The note with it: oocytes voltage clamped at -70 mV, 1 and 2 days after injection; FIG. 5A: 1 μM CCK-8, 1 μM gastrin-releasing peptide, 4 μM substance P. The protocol:
FIGS. 5A and 5B. Expression of the CCKA receptor in Xenopus oocytes. Ligand, induced chloride currents measured in the same oocytes one (A) and two (B) days after injection of mRNA (25 ng) in vitro transcribed from CCKA receptor cDNA cloned from rat pancreas. A. Response to agonists.
DNA was in vitro transcribed using T7 RNA polymerase from a CCK receptor clone template (5 to 1506, FIG. 1, SEQ NO:13) in pcDNA-1 (5 μg linearized with Apa 1) in the presence of the cap analog m^7G(5′)ppp(5′)G as recommended by the manufacturer (Promega). Xenopus oocytes were injected with 50 nl of approximately 25 ng of transcribed RNA. At 1-2 days, oocytes were voltage clamped at −70 mV, ligands were applied rapidly and directly to the constantly perfused bath and the ligand dependent Cl^− current measured.

In test [2] the target is T2, substance P receptor (Rattus norvegicus, UniProt P14600).
T2 construct: expressed in transfected cells; host or cells: Xenopus oocytes injected with receptor mRNA
Nature of the test: L-364,718 on SP response in oocytes injected with SP receptor mRNA. Type of test: cell-based. From the text: (§1) Inhibition was specific for CCKA receptors (i.e., there was no inhibition of SP or ACh response in oocytes injected with their respective receptor mRNAs).

Test [3] has as its system acetylcholine receptor. Nature of the test: L-364,718 on ACh response in oocytes injected with ACh receptor mRNA. Type of test: cell-based.
Excerpt: as §1

For test [4], the target named is T3, CCKB receptor (Rattus norvegicus, UniProt P30553).
T3 sequence (P30553 1-452): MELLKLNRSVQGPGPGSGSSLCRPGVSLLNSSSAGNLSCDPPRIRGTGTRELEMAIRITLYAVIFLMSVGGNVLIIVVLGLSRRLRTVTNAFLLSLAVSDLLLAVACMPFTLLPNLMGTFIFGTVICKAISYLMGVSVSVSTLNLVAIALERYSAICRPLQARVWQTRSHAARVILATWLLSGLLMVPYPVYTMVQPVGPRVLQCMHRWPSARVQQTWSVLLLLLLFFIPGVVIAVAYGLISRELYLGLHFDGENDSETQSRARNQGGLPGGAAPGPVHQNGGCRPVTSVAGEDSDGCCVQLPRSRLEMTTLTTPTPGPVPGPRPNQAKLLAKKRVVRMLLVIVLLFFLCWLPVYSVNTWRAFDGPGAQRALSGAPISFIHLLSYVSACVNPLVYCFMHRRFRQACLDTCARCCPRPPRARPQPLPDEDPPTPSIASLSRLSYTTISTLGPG
Conditions: COS-7 cells, rat CCKB receptor cDNA, 50 pM radioligand.
Description: Each experiment was performed in duplicate and the results given are the means from at least two separate experiments.
Two micrograms of PCDL-SRα containing either the CCKA coding region insert subcloned at an Xba 1 site in the sense orientation or the CCKB insert subcloned at an Eco R1 site in the sense orientation were transfected into a near confluent 100 mm tissue culture plate containing approximately 1×10^6 COS-7 cells using a DEAE/dextran method. Approximately 48 hours post transfection, the cells were washed twice with phosphate buffered saline (PBS), pH 7.4, 0.1% BSA at 4° C., scraped from the plate in Dulbeccols Modified Eagle's Medium (DMEM), 0.1% BSA, 4° C., centrifuged at 400×G, and resuspended at approximately 3-105 cells per ml in DMEM, 0.1% BSA, 4° C. […] Cells were subsequently washed three times with 2 ml PBS, 0.1% BSA, 4° C. by filtration on glass filters (Whatman GF/B) using a suction manifold (Millipore). Filters were assayed for gamma radioactivity (Packard, Auto-Gamma).

T2 sequence (P14600 whole entry): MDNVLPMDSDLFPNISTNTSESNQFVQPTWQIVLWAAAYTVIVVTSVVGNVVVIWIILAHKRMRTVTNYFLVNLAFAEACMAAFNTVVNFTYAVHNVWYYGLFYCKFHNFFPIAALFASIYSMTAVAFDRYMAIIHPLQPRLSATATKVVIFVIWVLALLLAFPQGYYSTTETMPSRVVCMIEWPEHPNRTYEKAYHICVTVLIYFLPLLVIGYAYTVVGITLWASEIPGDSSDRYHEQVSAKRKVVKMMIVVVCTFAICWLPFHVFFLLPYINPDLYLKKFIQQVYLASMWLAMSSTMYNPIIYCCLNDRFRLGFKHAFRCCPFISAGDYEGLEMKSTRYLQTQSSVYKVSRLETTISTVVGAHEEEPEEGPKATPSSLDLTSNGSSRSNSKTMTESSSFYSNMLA

Take substance P: the “response of oocytes to agonist (ligand dependent Cl- current)” value in test [1] is given as “not”.

`CN1C(=O)[C@@H](NC(=O)c2cc3ccccc3[nH]2)N=C(c2ccccc2)c2ccccc21` [L-364,718]: the “inhibition of SP response” value in test [2] is “no inhibition”. Besides, in test [3], the “inhibition of ACh response” value is recorded as “no inhibition”. With “gastrin-releasing peptide (VPLPAGGGTVLTKMYPRGNHWAVGHLM; ends and bridges not checked; UniProt P07492 24-50, looked up)”, the “response of oocytes to agonist (ligand dependent Cl- current)” value in test [1] was “not”.

Take `Cc1cccc(NC(=O)N[C@@H]2N=C(c3ccccc3)c3ccccc3N(C)C2=O)c1` [L-365,260]: in test [4], the “potency at inhibiting 125I-BH-CCK-8 binding relative to L-364,718” value was 10-100 fold.
